# Data: patent publication US20170326165A1, “USE OF RIBOSE IN FIRST RESPONSE TO ACUTE MYOCARDIAL INFARCTION” (BIOENERGY, INC., priority 2008, published 2017)
# Key:
# [1] = tested on: myocardial dysfunction resulting from globally induced ischemia during cardiac surgical procedures; assay type: in vivo, human
# Protocol: B. A preconditioning study was performed in human patients scheduled for surgery.
# Inclusion criteria were: • Males or females aged 18 or older • Patients with documented coronary artery disease undergoing CABG with an ejection fraction (EF) of 35% based on echocardiography, radionuclide imaging or cardiac catheterization done within eight weeks of surgery. (If more than one method was used to evaluate EF during this period, the mean values of the various methods were 35%). • Patients undergoing single or double valve replacement with documented coronary artery disease also undergoing CABG; or patients undergoing single or double valve replacement without CABG • Serum creatinine of <2.35 mg/dl • For females of childbearing potential, a negative pregnancy test. • Signed consent forms.
# The test article, placebo or ribose, was dispensed according to computer-generated randomization schedule either for patients undergoing CABG only or for patients undergoing heart valve surgery +/−CABG. All patients received a high dose narcotic anaesthesia technique consisting of either fentanyl (50-100 μg/kg) or sufentanil (10-20 μg/kg) and midazolam. No restriction was placed on the type of anaesthetic agents administered. The anaesthesiologists and surgeons responsible for the care of the patents made the clinical decision to use inotropic support, intra-aortic balloon pump support or post bypass circulatory support based on their knowledge of patients requirements and accepted medical practice and without regard to test article status. The test article infusion was started intravenously at the time of aortic cross clamping and continued until the pulmonary artery catheters introducer was removed or for five days (120) hours whichever occurred first. The surgeons responsible for the clinical care of the patients removed the pulmonary artery catheter cordis without regard to test article stats.
# Hemodynamic measurements consisting of heart rate, blood pressure, pulmonary artery pressures, pulmonary capillary wedge pressure (PCWP), central venous pressure (CVP) and thermodilution cardiac index (CI) were obtained at the following time intervals: immediately prior to induction of anaesthesia, post induction of anaesthesia prior to sternotomy, post sternotomy prior to initiation of cardiopulmonary bypass, upon successful termination of cardiopulmonary bypass prior to sternal closure and prior to reversal of heparinization with protamine, post closure of the sternum, upon arrival in the intensive care unit and at one or two hour intervals until the pulmonary artery a catheter was removed.
# Transesophageal echocardiography data (H.P. Sonos OR, 5.0 MHz, Andover, Mass.) was collected at the following time intervals: post induction of anaesthesia prior to sternotomy, and immediately post closure of the sternum. Transthoracic echocardiography (H.P. Sonos 1500. 2.5 MHz, Andover, Mass.) measurements were made on day three and day seven of the study period. For both the transesophageal and transthoracic echocardiograms, the following long axis and short axis mid-papillary area changes were measured in triplicate by acoustic quantification techniques: end diastolic area (EDA), end systolic area (ESA), fractional area change (FAC), +dA/dt and −dA/dt. All area change data were also analyzed by manual off line analysis. EF was also determined off line using a long axis view, In addition, regional wall motion was quantified as the following: normal=1, hypokinetic=2, akinetic=3 and dyskinetic=4. The wall motion index score (WMIS) and percentage normal myocardium were calculated by reading a maximum of sixteen segments. Echocardiography data for evaluating wall motion and area change was analyzed only if greater than 75% of the endocardial border could be visualized through a complete cardiac cycle. Off line analysis was performed on an Image View echocardiography workstation (Nova Microsonics, Allendale, N.J.). […]
# [2] = tested on: patients undergoing OPCABG; assay: metabolically directed protocol: oral D-ribose prior to and following OPCABG; assay type: in vivo, human
# Description: (§1) Following the initial study described in Example 2, 366 consecutive patients, 41-88 years of age, undergoing OPCABG were enrolled. Of these, 89 had recent MIs and seven presented with MIs within one to seven days. Prospectively collected data included comorbidities, hemodynamics and outcomes. All patients were managed with a protocol emphasizing normoglycemia, normothermia and reduced inflammation. Group 1 (n=308) received multiple oral doses (5 gram/dose) of D-ribose prior to and following surgery. […] Otherwise, both groups had similar preoperative characteristics including ejection fraction (EJ) and Society for Thoracic Surgery (STS) Risk Indices with nonsignificant trends in the increased comorbidities in Group 1.
# [3] = tested on: acute, first response MI patients; assay: first response acute MI patients given D-ribose (subset of Group 1); assay type: in vivo, human; conditions: seven first response MI patients
# Description: as §1
# A. While these studies are promising, neither replicates the clinical situation of a patient presenting at first response with an acute myocardial infarction, where time is of the essence. In most cases, MI is a spontaneous event, but an MI can be induced during a procedure such as angiogram, angioplasty or dobutamine echocardiography. Such a patient is generally in the process of compromising cardiac function.
# It should also be mentioned that these seven patients are included in Group 1 of Table I. With preloading with D-ribose, they were able to maintain and slightly increase their CI in comparison to the total group.
# [4] = tested on: rats subjected to an anterior MI; conditions: intravenous ribose for 14 days previous to the inducement of MI; cited from earlier work
# healthy dog hearts = conditions: administration immediately at reperfusion and continuing for at least four days; cited from earlier work
# [5] = Group 1, oral D-ribose, p<0.001 versus Group 2
structure (smiles),measurement,setting,value
O=C[C@H](O)[C@H](O)[C@H](O)CO [D-ribose],patients who developed hypoglycemia (fingerstick glucose <70 mg/dl),"[1]; both, human, in vivo",28%
same,lowest glucose level,"[1]; human, in vivo",31 mg/dL
same,mean glucose level in those patients developing hypoglycemia,"[1]; human, in vivo",58 mg/dL
same,neurological or other clinical symptoms associated with hypoglycemia,"[1]; human, in vivo",None
same,subjects in whom study drug infusion was stopped because of hypoglycemia,"[1]; human, in vivo",two
same,mean Day 7 EF,"[1]; ribose treated patients, Day 7, echocardiography, IV infusion 100 mg/kg/hr",41%
same,mean baseline EF,"[1]; ribose treated patients, baseline, echocardiography, IV infusion 100 mg/kg/hr",44%
same,postoperative death,[2]; Group 1,one
same,time in intensive care,"[2]; Group 1 (n=308), multiple oral doses 5 gram/dose prior to and following surgery, trend not significant",72 h
same,requirement for IABP,"[2]; Group 1 (n=308), oral D-ribose, trend not significant",12%
same,increase in CI after surgery,[2]; [5],0.8
same,patients demonstrating an increase in CI after OPCABG,[2]; [5],86%
same,Postop CI,"[2]; Group 1, postoperative cardiac index",3.0 ± 0.7
same,Preop CI,"[2]; Group 1, preoperative cardiac index",2.3 ± 0.5
same,Change (Preop CI to Postop CI),[2]; Group 1 of Table I,+0.07
same,Change (Preop CI to Postop CI),[3],+0.41
same,Postop CI,[3],2.60 ± 0.4
same,Preop CI,[3],2.19 ± 0.7
same,"parameters of heart function (LV diastolic diameter, LV systolic diameter, ejection fraction, shortening fraction)",[4],Significant improvement
same,ATP recovery,healthy dog hearts,enhanced ATP recovery
